How the values were obtained:
[1] = tested on: Escherichia coli; type: cell-based
[2] = tested on: Clostridium perfringens; type: cell-based; conditions: strain of avian origin, 10^6 cfu/ml, 37° C. for 24 hours, anaerobiosis
[3] = tested on: Salmonella Typhimurium; type: cell-based
[4] = Solubility in water; type: physicochemical; conditions: for solubility: water, at 25° C.
[5] = tested on: Escherichia coli; type: cell-based; remark: listed apart in the source
[6] = tested on: Clostridium perfringens; type: cell-based; conditions: strain of avian origin
[7] = tested on: Salmonella Typhimurium; type: cell-based; remark: listed apart in the source
[8] = tested on: Salmonella Enteritidis; type: cell-based
[9] = tested on: Salmonella Enteritidis; type: cell-based; remark: listed apart in the source

| Structure (SMILES) | MIC [1] [%] | MIC [2] [%] | MBC [3] [%] | Solubility in water ([4]; result in words) | MBC [5] [%] | MBC [6] [%] | MIC [7] [%] | MIC [8] [%] | MBC [9] [%] | melting point | solubility [4] [mg/mL] |
| --- | --- | --- | --- | --- | --- | --- | --- | --- | --- | --- | --- |
| Cc1ccc(C(C)C)cc1O [Carvacrol, reference compound] | ≤0.093 | ≤0.093 | 0.375 | INSOLUBLE | ≤0.093 | ≤0.093 | 0.375 | – | – | – | – |
| CCCCCCCCCCCC(=O)Oc1cc(C(C)C)ccc1C [IB536, Carvacrol Laurate] | >10 | >10 | >10 | – | >10 | >10 | >10 | – | – | – | – |
| Cc1cc(S(=O)(=O)O)c(C(C)C)cc1O [IB540, Carvacrol Sulfonic Acid] | 0.75 | 0.375 | 0.75 | – | 0.75 | 0.75 | 0.75 | 0.312 | 0.312 | – | – |
| Cc1cc(S(=O)(=O)[O-])c(C(C)C)cc1O.[K+] [IB546, Carvacrol Sulfonate Potassium Salt] | 5 | 0.375 | 1.25 | – | 5 | 0.75 | 1.25 | 1.25 | 1.25 | > 270 °C (dec.) | ~250 |
| CCCCCCCCCCCC(=O)Oc1cc(C)ccc1C(C)C [IB570, Thymol Laurate] | >10 | >10 | >10 | – | >10 | >10 | >10 | – | – | – | – |
| Cc1cc(O)c(C(C)C)cc1S(=O)(=O)O [IB574, Thymol Sulfonic Acid] | 0.75 | 0.375 | 0.375 | – | 0.75 | 0.375 | 0.375 | 0.625 | 0.625 | – | – |
| Cc1cc(O)c(C(C)C)cc1S(=O)(=O)[O-].[K+] [IB575, Thymol Sulfonate Potassium Salt] | 2.5 | 1.25 | 5 | – | 2.5 | 2.5 | 5 | – | – | – | ~190 |
| CCCCCCCCCCCC(=O)OC1CC(C)CCC1C(C)C (stereo not shown) [IB579, Menthol Laurate] | >10 | >10 | >10 | – | >10 | >10 | >10 | – | – | – | – |
| Cc1ccc(C(C)C)c(OC(=O)CCC(=O)Oc2cc(C)ccc2C(C)C)c1 [Succinate] | ≤0.093 | ≤0.093 | ≤0.093 | – | ≤0.093 | ≤0.093 | ≤0.093 | – | – | – | – |
| Cc1ccc(C(C)C)c(O)c1 [Thymol, reference compound] | ≤0.093 | ≤0.093 | ≤0.093 | – | ≤0.093 | ≤0.093 | ≤0.093 | – | – | – | – |

— patent US20180265804A1 (priority 2015, published 2018)
